Experimental data reported in patent publication US9839701B2, “Aromatic amino acid derivative and positron emission topography (PET) probe using the same” (OSAKA UNIVERSITY, priority 2013, dated 2017).

Biological target: T1, human LAT2 (Homo sapiens, UniProt Q9UHI5)
T1 construct: expressed in transfected cells
T1 sequence (Q9UHI5 1-535): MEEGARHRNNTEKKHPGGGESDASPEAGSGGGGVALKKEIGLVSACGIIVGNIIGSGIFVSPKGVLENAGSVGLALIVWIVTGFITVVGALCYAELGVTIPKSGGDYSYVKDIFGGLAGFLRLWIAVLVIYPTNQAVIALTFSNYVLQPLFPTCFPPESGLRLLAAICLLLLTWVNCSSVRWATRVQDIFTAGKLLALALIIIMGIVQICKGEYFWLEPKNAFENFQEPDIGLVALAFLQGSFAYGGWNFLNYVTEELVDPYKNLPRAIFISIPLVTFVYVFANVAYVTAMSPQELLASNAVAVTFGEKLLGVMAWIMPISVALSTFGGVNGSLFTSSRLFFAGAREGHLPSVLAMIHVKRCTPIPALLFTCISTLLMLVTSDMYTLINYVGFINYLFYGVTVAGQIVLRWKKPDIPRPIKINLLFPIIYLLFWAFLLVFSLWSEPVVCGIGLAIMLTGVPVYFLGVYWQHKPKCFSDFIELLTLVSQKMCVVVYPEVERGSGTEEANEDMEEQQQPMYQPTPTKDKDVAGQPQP
T1 sequence (P08195 1-529 partner): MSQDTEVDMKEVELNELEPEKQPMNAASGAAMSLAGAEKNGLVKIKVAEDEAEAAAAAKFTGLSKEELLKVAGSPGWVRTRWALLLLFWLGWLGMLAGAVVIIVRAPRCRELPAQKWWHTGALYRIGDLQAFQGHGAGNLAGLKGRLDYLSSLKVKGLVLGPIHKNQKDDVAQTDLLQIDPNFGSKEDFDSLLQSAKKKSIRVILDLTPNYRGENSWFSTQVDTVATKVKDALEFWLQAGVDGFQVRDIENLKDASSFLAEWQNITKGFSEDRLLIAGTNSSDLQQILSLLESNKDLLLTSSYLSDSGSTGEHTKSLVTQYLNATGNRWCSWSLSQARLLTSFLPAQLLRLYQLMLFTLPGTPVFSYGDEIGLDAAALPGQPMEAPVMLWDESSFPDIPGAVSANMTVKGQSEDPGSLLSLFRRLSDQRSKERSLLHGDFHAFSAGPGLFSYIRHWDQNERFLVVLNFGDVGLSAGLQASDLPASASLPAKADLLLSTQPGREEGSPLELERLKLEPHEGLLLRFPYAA
Assay: Inhibition of amino acid uptake in human LAT2 stably expressing cell line
Format: cell-based
Excerpt: A human LAT1 expression vector or a human LAT2 expression vector was transfected using Lipofectamine (registered trademark) 2000 (Invitrogen) into a human embryonic kidney cell line HEK293. G418-resistant HEK293 clones were selected, and among them, a clone showing human LAT1-specific amino acid uptake and a clone showing human LAT2-specific amino acid uptake were selected and established as a human LAT1 stably expressing cell line and a human LAT2 stably expressing cell line, respectively (Khunweeraphong et al. J Pharmacol Sci. 2012 Aug. 18; 119(4): 368-80. Epub 2012 Jul. 31).
The human LAT1 stably expressing cell line and the human LAT2 stably expressing cell line were seeded at 1.2×10^5 cells/well on separate collagen-coated 24-well plates, and after 48 hours, the cells were washed 3 times with an uptake buffer (Na^2+-free Hank's balanced salt solution (HBSS), pH 7.4) prewarmed at 37° C. Compound 10a, compound 10b or a positive control FAMT (fluoro-α-methyltyrosine) was added at 100 μM, and incubation was performed at 37° C. for 3 minutes. Cells not treated with any of these compounds were used as a negative control. After the incubation, 1 μM of [^14C]L-leucine or [^14C]alanine was added to the wells, [^14C]L-leucine or [^14C]alanine uptake was allowed to proceed for 1 minute, and the cells were washed 3 times with an ice-cold uptake buffer. Subsequently, 500 μL of 0.1 M NaOH was added to each well for cell lysis, 20 μL of the lysate was used for the measurement of the protein concentration, and the remaining lysate was used for the measurement of the intracellular radioactivity. The measured radioactivity was normalized to the protein concentration, and on the assumption that the amino acid uptake activity in the negative control was 100%, the percentage (%) of inhibition of amino acid uptake in the presence of each compound was calculated.
Using the same cell lines as described in Example 2, the compound of Example 1 was examined for the inhibitory effect on leucine or alanine uptake in the human LAT1 stably expressing cell line and the human LAT2 stably expressing cell line in the same manner as in Example 2. FAMT was used as the positive control. The compound of Example 1 or FAMT was added at 100 μM. Cells not treated with either of these compounds were used as a negative control. On the assumption that the amino acid uptake activity in the negative control (control) was 100%, the percentage (%) of inhibition of amino acid uptake in the presence of FAMT or the compound of Example 1 was calculated. In addition, the cancer cell selectivity was calculated as the ratio of the amino acid uptake activity in the human LAT2 stably expressing cell line relative to that in the human LAT1 stably expressing cell line.
In another experiment, the cells were treated with the compound of Example 1 at eight different concentrations (0.1, 1, 3, 10, 30, 100, 300 and 1000 μM), and the concentration causing 50% inhibition of amino acid uptake was calculated as the IC50 value.
A human LAT1 stably expressing cell line and a human LAT2 stably expressing cell line, each of which was the same as described in Example 2, were seeded at 1.2×10^5 cells/well, and after 48 hours, the cells were washed 3 times with an uptake buffer (Na^2+-free Hank's balanced salt solution (HBSS), pH 7.4) prewarmed at 37° C. The test compounds, L-tyrosine or the positive control FAMT (fluoro-α-methyltyrosine) was added at 30 μM, and incubation was performed at 37° C. for 3 minutes. Cells not treated with any of these compounds were used as a negative control. After the incubation, 1 μM of [^14C]L-leucine or [^14C]alanine was added to the wells, [^14C]L-leucine or [^14C]alanine uptake was allowed to proceed for 1 minute, and the cells were washed 3 times with an ice-cold uptake buffer. […]

inhibition at 100 µM (HEK293, compound at 100 μM, human LAT2 stably expressing HEK293 cell line, 1 μM [14C]L-leucine or [14C]alanine, 1 min uptake, read-out: Percentage of inhibition of LAT2-mediated amino acid uptake): 55.1% | IC50 (eight concentrations 0.1-1000 μM): 84 µM
SMILES: NC(Cc1cc(OCCF)ccc1I)C(=O)O (centres unmarked) [Example 1, 2-amino-3-(5-(2-fluoroethoxy)-2-iodophenyl)propanoic acid]
